Experimental data published in publication PMC8966755, “In Silico and In Vitro Screening of Natural Compounds as Broad-Spectrum β-Lactamase Inhibitors against Acinetobacter baumannii New Delhi Metallo-β-lactamase-1 (NDM-1)” (BioMed Research International, 2022).
Read-outs that look alike come from different tables or passages of the source.

Experiments:
Recombinant NDM-1 enzyme = molecular target: T1, Recombinant NDM-1 enzyme (Klebsiella pneumoniae, UniProt C7C422); assay: biochemical
T1 construct: purchased RayBiotech Life 230-00554-500
T1 sequence (C7C422 29-270 limits assumed): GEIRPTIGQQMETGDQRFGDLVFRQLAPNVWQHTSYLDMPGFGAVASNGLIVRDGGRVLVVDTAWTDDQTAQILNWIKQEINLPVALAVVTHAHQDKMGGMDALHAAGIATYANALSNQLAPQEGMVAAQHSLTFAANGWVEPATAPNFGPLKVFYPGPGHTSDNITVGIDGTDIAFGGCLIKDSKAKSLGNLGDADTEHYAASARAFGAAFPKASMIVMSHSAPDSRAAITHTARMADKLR
Description: The NDM-1 enzyme inhibition assay was carried out spectrophotometrically using nitrocefin as a chromogenic substrate as described previously [27].
The natural compounds were incubated with NDM-1 enzyme, and the substrate, nitrocefin, and hydrolysis of the substrate were monitored at 490 nm OD.

β-lactamase = assay: β-Lactamase enzyme inhibitory activity assay; type: biochemical; settings: β-lactamase inhibition assay
Description: . The percent inhibitory curves for the candidate natural compounds with efficacy for NDM-1 and β-lactamase enzyme are given in Figures 5(a) and 5(b). The natural compounds were incubated with NDM-1 enzyme, and the substrate, nitrocefin, and hydrolysis of the substrate were monitored at 490 nm OD.
The eight candidate natural compounds identified by in silico analysis against NDM-1 were also tested for β-lactamase inhibition assay. […]

[1] = tested on: PAN resistance A. baumannii clinical isolate (strain number: P-29); assay: Checkerboard synergy titration assay with imipenem (FIC); type: cell-based; settings: compound 128 mg/L with imipenem; carbapenem-resistant A. baumannii clinical strain
Description: The combined effect of the natural compounds and imipenem (Zhejiang Hisun Pharmaceutical, China) was done using the checkerboard synergy titration assay in a 96-well microtitre plate. Imipenem was tested at concentrations of […] than their MIC and two dilutions higher than the MIC. MIC concentration of imipenem (4x) was added in all wells under column 1 of the 96-well checkerboard panel for each concentration of natural compounds (one each row). The compounds were serially diluted at different subinhibitory concentrations, and each concentration was added to the corresponding rows.
A FIC = 0.5 for a compound was taken as synergistic, FIC > 0.5 − 4 was additive/indifferent, and FIC > 4 was taken as antagonistic.
The checkerboard method was used to design the dilution panel, with twofold concentrations above the MIC of the antibiotics and MIC concentration and fivefold below the MIC.

[2] = 1 nM NDM-1, 10 μM ZnSO4, nitrocefin 60 μM, 490 nm, 30°C, compounds 10-100 μM, read-out: IC50 NDM-1 enzyme activity

SMILES | IC50 (Recombinant NDM-1 enzyme) [µM] | IC50 (β-lactamase) [µM] | FIC index [1] | IC50 (Recombinant NDM-1 enzyme; [2]) [µM]
O=c1c2cc(O)c(O)cc2oc2cc(O)c([C@@H]3O[C@H](CO)[C@@H](O)[C@H](O)[C@H]3O)c(O)c12 [Mangiferin] | 30.6 ± 4.41 | 58 ± 2.08 | 0.625 | 
COc1c(O)cc2oc3cc(O)c(CC=C(C)C)c(O)c3c(=O)c2c1CC=C(C)C [Mangostin] |  | 136 ± 37.1 |  | 97.5 ± 5.59
C[C@@H]1O[C@@H](OC[C@H]2O[C@@H](Oc3c(-c4ccc(O)c(O)c4)oc4cc(O)cc(O)c4c3=O)[C@H](O)[C@@H](O)[C@@H]2O)[C@H](O)[C@H](O)[C@H]1O [Rutin] |  | 127 ± 15.9 |  | 48.9 ± 3.74
CC1=C(CO)C(=O)O[C@@H]([C@@H](C)[C@H]2CC[C@H]3[C@@H]4C[C@H]5O[C@]56[C@@H](O)C=CC(=O)[C@]6(C)[C@H]4CC[C@]23C)C1 [Withaferin A] | 24 ± 2.92 | 32.8 ± 2.59 | 0.3125 | 
CC1(C)[C@H](C(=O)O)N2C(=O)C[C@H]2S1(=O)=O [sulbactam, reference compound] |  | 7.24 ± 0.392 |  | 
